In the data set the test system is patient with mitochondrial disease. Nature of the data set: Clinical Example 2: administration to a patient with mitochondrial disease. Format: in vivo, human. To be noted: agent dose in terms of L-arginine 0.5 g/kg/hr. The protocol: The agent for treating mitochondrial disease of the present invention was administered to a patient with mitochondrial disease at a dose in terms of L-arginine of 0.5 g/kg/hr.

Turning to `N=C(N)NCCC[C@H](N)C(=O)O` [L-arginine alone, L-arginine], the “effects on the symptoms of the mitochondrial disease” value was “did not sufficiently exhibit” and the vomiting result is reported as “repetitive vomiting”.

The values above are taken from patent US20120322863A1, “PREVENTION OF AND COUNTERMEASURES AGAINST MITOCHONDRIAL DISEASE” (priority 2004, published 2012).
